Assay results reported in patent publication US20220110985A1, “NUTRITIONAL COMPOSITION COMPRISING 2'FUCOSYLLACTOSE AND 3'GALACTOSYLLACTOSE” (N.V. Nutricia, priority 2019, published 2022).
Marks after values point to notes of the source that are not given here.

Legend:
Caco-2 cell monolayer = assay: DON-induced impairment of Caco-2 cell monolayer integrity (TEER, lucifer yellow flux); assay type: cell-based, human; conditions: for effect on DON-induced loss of epithelial barrier integrity (TEER, LY flux), in words: 24 h pretreatment (GLs 0.75 wt. %; 2′-FL 1 mg/ml), then DON 4.2 μM 24 h
Procedure: Beta1,3′-galactosyl-lactose (beta3′-GL), beta1,4′-galactosyllactose (beta4′-GL) and beta1,6′-galactosyl-lactose (beta6′-GL) were obtained from Carbosynth (Berkshire, UK). Alpha1,3′-galactosyl-lactose (alpha3′-GL) was obtained from Elicityl (Crolles, France). Purified deoxydivalenol (DON) (D0156; Sigma Aldrich, St Luis, Mo., USA) was dissolved in pure ethanol and stored at −20° C. Human epithelial colorectal adenocarcinoma (Caco-2) cells were obtained from American […] (Code HTB-37) (Manasse, Va., USA, passage 90-102).
Caco-2 cells were used according to established methods. In brief: cells were cultured in Dulbecco's modified Eagle medium (DMEM) and seeded at a density of 0.3×10^5 cells into 0.3 cm^2 high pore density (0.4 μm) inserts with a polyethylene terephthalate membrane (BD Biosciences, Franklin Lakes, N.J., USA) placed in a 24-well plate. The Caco-2 cells were maintained in a humidified atmosphere of 95 air and 5% CO2 at 37° C.
Caco-2 cell monolayers were thus grown in a transwell system, which is a model for intestinal barrier function. The monolayers were pretreated for 24 h with different GLs, including beta3′-GL, alpha3′-GL, beta4′-GL and beta6′-GL in a concentration of 0.75 wt. % of the GL, before being exposed to the fungal toxin deoxynivalenol (DON), which is a trigger and model compound to impair intestinal barrier. DON was diluted to a final concentration of 4.2 μM in complete cell medium and added to the apical side as well as to the basolateral side of the transwell inserts. […] Incubation with DON was 24 h.
Measurements of the transepithelial electrical resistance (TEER) and lucifer yellow (LY) permeability were conducted to investigate barrier integrity. For TEER measurements a Millicel-ERS voltohmmeter connected to a pair of chopsticks electrodes was used to measure the TEER values. Results are expressed as a percentage of the initial value. For paracellular tracer flux assay the membrane impermeable lucifer yellow (LY) (Sigma, St Luis, Mo., USA) was added in a concentration of 16 μg/ml to the apical compartment in the transwell plate for 4 h, and the paracellular flux was determined by measuring the fluorescence intensity in the basolateral compartment with a spectrophotofluorimeter (FLUOstar Optima, BMG Labtech, Offenburg, Germany) set at excitation and emission wavelengths of 410 and 520 nm, respectively. Release of interleukin-8 (IL-8 or CXCL8), which is a typical marker for inflammation, was quantified in the medium of the apical side and the basolateral side of the Caco-2 transwell inserts in response to the treatments. CXCL8 concentrations were measured by using the human IL-8 ELISA assay (BD Biosciences, Pharmingem, San Diego, Calif., USA) according to manufacturer's instructions. For more details on materials and methods see Akbari et al, 2016, Eur J Nutr. 56(5):1919-1930.

human PBMC, unstimulated = assay: Cytokine production of unstimulated PBMC (IL10, CCL20); assay type: cell-based
Source text: Isolation of PBMC from healthy donors: Human peripheral blood mononuclear cells (PBMC) from healthy donors were isolated from buffy coats (Sanquin, Amsterdam, the Netherlands). PBMC were obtained by centrifugation using Leucosep tubes (Greiner Bio-One). […] After lysis, the PBMC were resuspended in freezing medium (70% RPMI 1640 medium (Gibco, Thermo Fisher Technologies) supplemented with 10% heat-inactivated FCS and 100 U/ml penicillin-streptomycin, 20% heat-inactivated FCS and 10% DMSO (Sigma)) and cryopreserved. PBMC activation model: PBMC (0.2·10^6 cell/well) were cultured in 96-well flat bottom plates (Corning). For 24 hours the cells were pre-incubated with 2'-FL (Jennewein), 3'-GL (0-0.3% w/v; […] Sigma Aldrich) and combinations thereof. Subsequently, the cells were CD3/CD28-activated (Pelicluster CD3 and Pelicluster CD28, Sanquin) for an additional 24 hours. After incubation, IFNγ was measured by ELISA in the supernatants (see below). […] Roche) and/or 10% Triton (5 μl; negative control). […] Cytokine production of PBMC: PBMC were incubated with indicated reagents. After incubation, the supernatants were collected and IL2, IL6, IL10, IL13, IL21, TNFα, IFNγ, MIF, CCL1, CCL13, CCL17, CCL20, CCL22 and CXCL8-11 levels were measured by conducting a validated multiplex immunoassay based on Luminex technology (xMAP, Luminex Austin Tex. USA). Acquisition was conducted with the Biorad […] (Biorad laboratories, Hercules USA) in combination with xPONENT software version 4.2 (Luminex). Data was analyzed by 5-parametric curve fitting using Bio-Plex Manager software, version 6.1.1 (Biorad). After PBMC stimulation, cell culture supernatants were collected, after which cytokine responses were measured in order to test immune responsiveness of the cells. The levels of cytokines measured in stimulated conditions were corrected for the (low) levels of the cytokines measured in non-stimulated conditions. In addition, since each donor is reacting in its own efficiency onto the T cell stimulus, we calculated the individual index of cytokine response by dividing the intervention induced response by the basal stimulated response.

[1] = system: T84 human intestinal epithelial cells; assay: T84 monolayer barrier integrity (TEER) with IL-4; assay type: cell-based; conditions: butyric acid 4 mM, TEER increase relative to t=0
Procedure: T84 human intestinal epithelial cells are commonly used to study intestinal barrier integrity in vitro. T84 cells (ATCC, USA) were cultured on 12 mm transwell inserts (0.4 μm, Corning Costrar, USA) in DMEM-F12 glutamax with penicillin-streptomycin (100 IU/ml), supplemented with 5% FBS-Hl. T84 cells were used 14 days after reaching confluence. Monolayers of T84 cultured on transwell filters were pre-incubated for 48 h with or without butyrate. These samples were subsequently incubated for an additional 48 h in the presence of IL-4 (25 ng/ml). IL-4 was added to the basolateral compartment; medium and additives were changed every 24 h.
Epithelial barrier integrity was assessed by measuring transepithelial resistance (TEER; Ω×cm^2) with the epithelial volt-ohm meter (EVOM; World Precision Instruments, Germany).
Results are shown in Table 5 where relative TEER values are presented. The 48 h and 96 h column is the TEER increase relative to t=0 value. IL-4 treatment disrupted the intestinal barrier function; however in the presence of butyrate this disruption was ameliorated.

[2] = system: human peripheral blood mononuclear cells (PBMCs); assay: PBMC cell activity (WST-1); assay type: cell-based; conditions: after 24 h; non-stimulated and CD3/CD28 stimulated conditions
Procedure: Isolation of PBMC from healthy donors: Human peripheral blood mononuclear cells (PBMC) from healthy donors were isolated from buffy coats (Sanquin, Amsterdam, the Netherlands). PBMC were obtained by centrifugation using Leucosep tubes (Greiner Bio-One). PBMC were collected and washed in PBS (Gibco, Thermo Fisher Technologies)+2% heat-inactivated FCS (Invitrogen), followed by hypotonic lysis of erythrocytes with sterile lysis buffer (0.15 M NH4Cl, 0.01 M KHCO3 and 0.1 mM EDTA, pH of 7.4 at 4° C., all from Merck, Darmstadt, Germany). After lysis, the PBMC were resuspended in freezing medium (70% RPMI 1640 medium (Gibco, Thermo Fisher Technologies) supplemented with 10% heat-inactivated FCS and 100 U/ml penicillin-streptomycin, 20% heat-inactivated FCS and 10% DMSO (Sigma)) and cryopreserved.
PBMC activation model: PBMC (0.2·10^6 cell/well) were cultured in 96-well flat bottom plates (Corning). For 24 hours the cells were pre-incubated with 2′-FL (Jennewein), 3′-GL (0-0.3% w/v; Carbosynth) or sodium butyrate (0.2 mM; Sigma Aldrich) and combinations thereof. Subsequently, the cells were CD3/CD28-activated (Pelicluster CD3 and Pelicluster CD28, Sanquin) for an additional 24 hours. After incubation, IFNγ was measured by ELISA in the supernatants (see below). To determine cell activity after stimulation, PBMC were incubated with cell proliferation reagent WST-1 (10 μl; Roche) and/or 10% Triton (5 μl; negative control). After 3 hours, absorbance was measured at OD450 nm and OD650 nm and cell activity was calculated according to manufacturer's instructions.

[3] = Caco-2 monolayer, DON 4.2 μM, 2′-FL 1 mg/ml

With `OC[C@H]1O[C@@H](O[C@@H]2[C@H](O)[C@@H](O)[C@H](O[C@H]3[C@H](O)[C@@H](O)C(O)O[C@@H]3CO)O[C@@H]2CO)[C@H](O)[C@@H](O)[C@H]1O` (stereo partly drawn) [beta4′-GL, Gal (beta 1-4)-Gal (beta 1-4)-Glc] the “effect on DON-induced loss of epithelial barrier integrity (TEER, LY flux), in words” value (“effect on DON-induced loss” below) (Caco-2 cell monolayer) was “did not show a significant effect”.
With `CCCC(=O)O` [butyrate, butyric acid] the “IL10 level as compared to blanc control, in words” value (human PBMC, unstimulated; 0.2% 2′-FL, 0.2 mM butyrate) was “did not have an effect”, the “CCL20 level as compared to blanc control, in words” value (human PBMC, unstimulated; unstimulated PBMC) was “did not have a statistically significant effect” and the “Relative IL10 level, mean (se)” value (human PBMC, unstimulated; unstimulated, 0.2% w/v 2′-FL, 0.2 mM butyrate, blanc = 1, observed) was 1.911 (0.203). For the same molecule, the “Relative CCL 20 mean (s.e.)” value (human PBMC, unstimulated; unstimulated, 0.2% w/v 2′-FL, 0.1 w/v % 3′-GL, 0.2 mM butyrate, blanc = 1, observed) was 1.053 (0.127), the “% TEER at 48 h” value ([1]; 48 h pre-incubation) was 79 (25) % and the “% TEER at 96 h (IL-4)” value ([1]; additional 48 h with IL-4 25 ng/ml) was 26 (16) %. For the same molecule, the “Immune cell activity as measured by WST, in words” value [2] was “did not influence immune cell metabolic activity”.
In the case of `CC1=C[C@H]2O[C@@H]3[C@H](O)C[C@](C)([C@@]2(CO)[C@H](O)C1=O)[C@]31CO1` [DON, deoxynivalenol], the Lucifer yellow flux (Caco-2 cell monolayer; [3]) is reported as 530.8 (3.975)*** ng/ml (cm^2xh) and the “TEER (% of initial value) Mean (s.e.)” value (Caco-2 cell monolayer; [3]) is reported as 34.33 (1.088)*** % of initial value.
In the case of `OC[C@H]1O[C@@H](OC[C@H]2O[C@@H](O[C@H]3[C@H](O)[C@@H](O)C(O)O[C@@H]3CO)[C@H](O)[C@@H](O)[C@H]2O)[C@H](O)[C@@H](O)[C@H]1O` (stereo partly drawn) [beta6′-GL, Gal (beta 1-6)-Gal (beta 1-4)-Glc], the “effect on DON-induced loss” value (Caco-2 cell monolayer) is reported as “did not show a significant effect”.
For `OC[C@H]1O[C@H](O[C@H]2[C@@H](O)[C@@H](CO)O[C@@H](O[C@H]3[C@H](O)[C@@H](O)C(O)O[C@@H]3CO)[C@@H]2O)[C@H](O)[C@@H](O)[C@H]1O` (stereo partly drawn) [alpha3′-GL, Gal (alpha 1-3)-Gal (beta 1-4)-Glc], the “effect on DON-induced loss” value (Caco-2 cell monolayer) was “did not prevent the DON-induced disrupted intestinal barrier”.
